The values that follow come from patent publication US20120149708A1, “MODULATORS OF VIRAL TRANSCRIPTION, AND METHODS AND COMPOSITIONS THEREWITH” (George Mason University, priority 2010, published 2012).

What is called inhibition is the relative decrease from the control value, in per cent.

In test [1] the test system is J1.1 cells (HIV-1 infected). Description: Cell viability by trypan blue exclusion, 48 hours. The format is cell-based. How it is done:
(§1) In brief, the inhibition studies were carried out as follows. HIV-1 infected cells ACH2, J1.1, OM10.1, U1 and uninfected CEM, Jurkat T-cells, and U937 were cultured in media. The appropriate inhibitor was added at a concentration of 10 μM. Cells were treated for 48 hours and cell viability was determined using trypan blue exclusion method. Results of such a screen for 19 inhibitors is shown in Table 1 where percent dead cells are indicated each drug tested.
(§2) Again HIV-1 infected and uninfected cells were treated with eighteen Formula I compounds at a drug concentration of 50 nm. Forty-eight hours after treatment, cytotoxicity was determined by trypan blue dye exclusion. Percent inhibition was calculated after obtaining the cell density for each well of the tissue culture plate at the end of 48 hrs.

For test [2], the system named is OM10.1 cells (HIV-1 infected). In words: Cell viability by trypan blue exclusion, 48 hours. The class given is cell-based. As to the method:
as §1, §2

Test [3] relates to U1 cells (HIV-1 infected). Description: Cell viability by trypan blue exclusion, 48 hours. The format is cell-based. How it is done: as §1, §2
Test [4] relates to CEM cells (uninfected). In words: Cell viability by trypan blue exclusion, 48 hours. The class given is cell-based. As to the method: (§3) TZM-bl cell lines were grown in Dulbecco's modified Eagle's medium supplemented with fetal bovine serum (FBS) (10%, v/v), 2 mM L-glutamine, and antibiotics (penicillin 100 U/ml, streptomycin […]) (cDMEM). HCT116 WT and HCT116 Dicer−/−cell lines were grown in McCoy's medium supplemented with FBS (10%, v/v), 2mM L-glutamine, and antibiotics (penicillin 100 U/ml, streptomycin […]). CEM, ACH2, Jurkat and U937 cells were grown in RPMI 1640 supplemented with FBS, L-glutamine, and antibiotics (penicillin 100 U/ml, streptomycin […]). All cell lines were maintained at 37° C. in 5% (v/v) CO2.
(§4) ACH2 cells are infected with HIV-1; TZM-bl cells contain a stably-integrated HIV-1 LTR-Luciferase reporter; CEM, Jurkat, and U937 cells are uninfected. Transfections were carried out using Attractene (Qiagen) lipid reagent. Cells were cultured to confluence and pelleted at 4° C. for 15 min at 3,000 rpm. The cell pellets were washed twice with 25 ml of phosphate-buffered saline (PBS) with Ca2+ and Mg2+ (Quality Biological) and centrifuged once more. Cell pellets were resuspended in lysis buffer (50 mM Tris-HCl, pH 7.5, 120 mM NaCl, 5 mM EDTA, 0.5%, v/v, NP-40, 50 mM NaF, 0.2 mM Na3VO4, 1 mM DTT, one complete protease cocktail tablet/50 ml (Roche) and incubated on ice for 20 min, with gentle vortexing every 5 min. Cell lysates were transferred to eppendorf tubes and were centrifuged at 10,000 rpm for 10 min. Supernatants were transferred to a fresh tube where protein concentrations were determined using Bio-Rad protein assay (Bio-Rad, Hercules, Calif.).
as §1, §2

Test [5] deals with U937 cells (uninfected). In words: Cell viability by trypan blue exclusion, 48 hours. The format is cell-based. How it is done:
as §3, §4, §1, §2

Test [6] has as its system HIV-1 (pNL4.3) in Jurkat T-cells. Description: Reverse transcriptase assay of supernatants, pNL4.3 electroporated cells. The format is cell-based. The following applies: Flavopiridol 200 nm, CR8 100 nm, CR8#13 50 nm, 48 hours. As to the method:
(§5) Jurkat T-cell and promonocytic U937 cells were electroporated with 5 μg pNL4.3 followed the next day by drug treatment of Flavopiridol (200 nm), CR8 (100 nm) or CR8#13 (50 nm). Cell supernatants were collected at 48 hours post drug treatment. Viral supernatants (10 μl) were incubated in a 96-well plate with reverse transcriptase (RT) reaction mixture overnight at 37° C., and 10 μl of the reaction mix was spotted on a DEAE Filtermat paper, washed with 5% (w/v) Na2HPO4 followed by water wash, and then dried completely. RT activity was measured in a Betaplate counter.
(§6) For electroporations, Jurkat and U937 cells were resuspended at 3 million cells in 250 μl of RPMI. Five microgram of pNL4-3 was then added to the cell suspension. Cells were pulsed a single time at 210V, 800 μF, and low resistance. Electroporated cells were immediately transferred to RPMI-1640 with L-glutamine and Penicillin/Streptomycin with 10% (v/v) FBS and plated in 6 well plates. Twenty four hours-post electroporation, cells were treated with drugs for additional 48 hrs and harvested for RT analysis. RT assays were performed as described in ((Guendel et al. 2009; Easley et al. 2010).
(§7) The present inventors examined whether Formula I, or Formula II compounds were effective inhibiting viral transcription in cell lines infected with an HIV-1 construct. Thus, Jurkat T-cells and promonocytic U937 cells were transfected with pNL4.3 and then treated with Flavopiridol, CR8 and CR8#13. Similar to monocytes, the Dicer levels are low to undetectable in promonocytic cells (FIG. 6) and was detectable only when these cells had differentiated into macrophages with PMA treatment.
(§8) Following drug treatment cell supernatants were collected and processed for exogenous reverse transcriptase (RT) levels.

The subject of test [7] is HIV-1 (pNL4.3) in promonocytic U937 cells. The test is described as above. The format is cell-based. The following applies: Flavopiridol 200 nm, CR8 100 nm, CR8#13 50 nm, 48 hours. As to the method:
as §5, §6, §7, §8

Test [8] relates to 3′TAR and 5′TAR microRNA. Description: Poly-A RT-PCR of TAR microRNA in TZM-bl cells with or without TSA. The format is cell-based, HIV-1. The following applies: for 3′ TAR microRNA amount: non-TSA treated TZM-bl cells, Flavopiridol 50 nm, CR8 100 nm, CR8#13 100 nm. As to the method: RNA was extracted 48 hrs-post drug treatment. 500 ng of RNA from the microRNA-enriched fraction was used to generate cDNA using the Quantimir kit (SBI) in order to poly adenylate small RNA species. RT reactions were performed followed by PCR in which a universal reverse primer was provided by the manufacturer. Specific microRNA forward primers are identical in sequence to the microRNA of interest. PCR products corresponding to the amplified microRNAs were separated in a 3.5% (w/v) agarose gel. The PCR products are at around 67 bp as compared with the Fermentas 1 kb DNA Plus Ladder. Increased levels of 3′TAR microRNA were produced post CR8#13 treatment.
For poly-A RT-PCR detection of microRNAs, 500 ng of RNA from the microRNA-enriched fraction was used to generate cDNA using the Quantimir kit (SBI) according to the manufacturer's protocol. Briefly, small RNA species are poly-adenylated and then reverse transcription reactions are performed with a company-provided RT primer. For PCR, a universal reverse primer is provided by the manufacturer. Specific microRNA forward primers are identical in sequence to the microRNA of interest. PCR products corresponding to the amplified microRNAs were separated in a 3.5% (w/v) agarose gel and quantified using the Kodak 1D software.
To determine whether the cdk inhibitors Flavopiridol, CR8, and CR8#13 increased levels of TAR microRNA in the TSA-treated and control TZM-bl cells total RNA was extracted from both TSA treated and control cells treated with Flavopiridol, CR8, and CR8#13 and processed for RT-PCR detection of microRNAs, specifically, for the presence of 3′TAR and 5′TAR molecules.

`CC(C)c1cnn2c(NCc3ccc(-c4ccccn4)cc3)nc(NC[C@H](O)CO)nc12.O=C(O)/C=C/C(=O)O` [BJFP1154]: the “Inhibition Percentage J1.1” value in test [1] (50 nM, 48 hrs, HIV-1 infected) is on record as “− (1-5%)”. In addition, the “Inhibition Percentage OM10.1” value in test [2] (50 nM, 48 hrs, HIV-1 infected) is given as “− (1-5%)”. Besides, the “Inhibition Percentage U1” value in test [3] (50 nM, 48 hrs, HIV-1 infected) is recorded as “− (1-5%)”. In addition, the “Inhibition Percentage CEM” value in test [4] (50 nM, 48 hrs) is reported as “− (1-5%)”. In addition, the “Inhibition Percentage U937” value in test [5] (50 nM, 48 hrs) was “− (1-5%)”. In addition, the results for the “RT levels in supernatant” value in test [6] and in test [7] were “effective at decreasing RT levels” and “not U937 monocytic cells”, respectively. The “3′ TAR microRNA amount” value in test [8] was “significantly increased amount of the 3′ TAR microRNA”.

In the case of `CC[C@@H](CO)Nc1nc(NCc2ccc(-c3ccccn3)cc2)c2ncn(C(C)C)c2n1` [CR8], the inhibition at 10 µM in test [1] (Human immunodeficiency virus 1, 48 h, read-out: % Inhibition (percent dead cells) J1.1) was 75%; in test [2] (Human immunodeficiency virus 1, 48 h, read-out: % Inhibition (percent dead cells) OM10.1), 75%; in test [3] (Human immunodeficiency virus 1, 48 h, read-out: % Inhibition (percent dead cells) U1), 90%; in test [4] (Homo sapiens, CCRF-CEM, 48 h, 10 μM, 48 hours, read-out: % Inhibition (percent dead cells) CEM), 25%; in test [5] (Homo sapiens, U-937, 10 μM, 48 hours, read-out: % Inhibition (percent dead cells) U937) it was 50%. Also, the figures for the “RT levels in supernatant” value in test [6] and in test [7] were “effective at decreasing RT levels” and “not U937 monocytic cells”, respectively. For the same molecule, the “3′ and 5′ TAR microRNA amount” value in test [8] (TZM-bl cells treated with TSA for 7 days, then drug) is “higher amounts of both 3′ and 5′ TAR microRNA”. In addition, in test [8], the “3′ TAR microRNA amount” value is listed as “significantly increased amount of the 3′ TAR microRNA”.
